In patent US4021545A, “Complement inhibitors” (priority 1976, dated 1977):
Where “and” joins values, the source holds several entries; their conditions need not be identical. Equal values may be shown once.

Legend:
[1] = tested on: shunt pathway activated by cobra venom factor; assay type: cell-based; settings: serial two-fold dilution assay; higher well number indicates higher activity; human erythrocytes in autologous serum
Method: (§1) This test measures the ability of activated human C1 to destroy fluid phase human C2 in the presence of C4 and appropriate dilutions of the test compound. […] Inhibition of the shunt pathway results in failure of lysis; (iv) Forssman Test -- Here, the well known complement dependent lesion, Forssman vasculitis, is produced in guinea pigs by intradermal injection of rabbit anti-Forssman antiserum. […] The complement level is determined in undiluted serum by the capillary tube method of U.S. Pat. No. 3,876,376 and compared to undosed control guinea pigs; and (vii) Cap 50 Test -- Here, appropriate amounts of the test compound are added to a pool of guinea pig serum in vitro, after which the undiluted serum capillary tube assay referred to above is run.

[2] = tested on: late components of human complement (C3-C9); assay: Test, Code 035 (C3-C9 inhibitor); assay type: biochemical; settings: serial two-fold dilution assay; higher well number indicates higher activity; lysis of EAC 142
Method: as §1

activated human C1 = assay: Test, Code 026 (C1 inhibitor); assay type: biochemical; settings: serial two-fold dilution assay; higher well number indicates higher activity
Method: as §1

[3] = tested on: complement in pool of guinea pig serum; assay: Cap 50 Test; assay type: biochemical; settings: in vitro, undiluted guinea pig serum, capillary tube assay
Method: as §1

whole complement = settings: 200 mg/kg, percent inhibition of serum complement vs simultaneous controls
Method: With reference to Table I, guinea pigs weighing about 300 g were dosed intravenously (IV) or intraperitoneally (IP) with 200 mg/kg of the test compound dissolved in saline and adjusted to pH 7-8. One hour after dosing, the guinea pigs were decapitated, blood was collected and the serum separated. The serum was tested for whole complement using the capillary tube assay. Percent inhibition was calculated by comparison with simultaneous controls.

“Inulin, poly(H-sulfate)sodium salt [INULIN, POLY(H-SULFATE) SODIUM SALT]” was tested, and the “Shunt Inhibit. 036” value [1] was 5 wells, the “C-Late 035” value [2] was 5 wells and 7 wells and the “Cl 026” value (activated human C1) was 7 wells and 10 wells. For the same substance, the “Cap 50” value [3] was 100 and 94 and 92.

In the case of “Inulin, poly(H-sulfate)salt with trimethylamine”, the “Shunt Inhibit. 036” value [1] is reported as 5 wells, the “C-Late 035” value [2] is reported as 6 wells and the “Cl 026” value (activated human C1) is reported as 8 wells. For the same substance, the “Cap 50” value [3] was 131.

“Inulin, poly(H-sulfate)salt with triethylamine” was tested, and the “Shunt Inhibit. 036” value [1] was 5 wells, the “C-Late 035” value [2] was 5 wells and the “In Vivo Activity Guinea Pig (IV) 2 Hr.” value (whole complement; 2 Hr.) was -97. The “In Vivo Activity Guinea Pig (IV) 30 Hr.” value (whole complement; 30 Hr.) was -95, the “In Vivo Activity Guinea Pig (IV) 120 Hr.” value (whole complement; 120 Hr.) was -91 and the “Cl 026” value (activated human C1) was 8 wells. The “Cap 50” value [3] was 160.
